# Measurements as given in US11963519B2 (priority 2022, dated 2024).
# “And” between values parts separate entries of the source, which are not always exact repeats. Equal entries are not always repeated.
# Columns and labels:
# CD-1 mice [1] = assay type: in vivo, mouse
# CD-1 mice [2] = conditions: mouse, in vivo
# CD-1 mice [3] = assay type: in vivo, mouse; remark: listed apart in the source
Compound,"exploratory behaviors in open-field test of BCG+PTX model mice (CD-1 mice [1]; mouse, in vivo)","exploratory behaviors in open-field test of depression model mice (CD-1 mice [1]; mouse, in vivo)","number of times of zone crossing in open-field test of BCG+PTX model mice (CD-1 mice [1]; mouse, in vivo)","number of times of zone crossing in open-field test of depression model mice (CD-1 mice [1]; mouse, in vivo)","total movement distance in open-field test of BCG+PTX model mice (CD-1 mice [1]; mouse, in vivo)","total movement distance in open-field test of depression model mice (CD-1 mice [1]; mouse, in vivo)",sucrose preference rate in depression model mice (CD-1 mice [2]),"motionlessness time (behavioral despair state) in TST of BCG+PTX model mice (CD-1 mice [3]; mouse, in vivo)",Open-field test Number of times of exploratory behaviors (CD-1 mice [1]; n=12),Open-field test Number of times of zone crossing (CD-1 mice [1]; n=12),Open-field test Total movement distance (CD-1 mice [1]; n=12),TST Motionlessness time (CD-1 mice [3]; n=12)
"CN(C)CCCN1c2ccccc2CCc2ccccc21 [IMI, imipramine]",increased,decreased,increased,decreased,increased,decreased,significantly reduce,improved,,,,
Bacille Calmette-Guerin [BCG],,,,,,,,,23.83 ± 12.41 and 38.92 ± 15.96,104.91 ± 35.1528 and 138.73 ± 23.44,582.74 ± 211.42 cm and 734.20 ± 349.87 cm,122.60 ± 34.11 s and 98.84 ± 21.35 s
